Experimental data published in ChEMBL document CHEMBL5303573, “Mapping human microbiome drug metabolism by gut bacteria and their genes” (Nature, 2019).

Experiments:
[1] = The drug is tested on Eubacterium biforme strain: DSM3989 for biotransformation. The drug concentrations were measured before and after a 12-h incubation by liquid-chromatography-coupled mass spectrometry (LC–MS); conditions: holdemanella biformis, 2 µM
[2] = The drug is tested on Proteus penneri strain: ATCC35198 for biotransformation. The drug concentrations were measured before and after a 12-h incubation by liquid-chromatography-coupled mass spectrometry (LC–MS); conditions: 2 µM

Compound: O=C(O)COCCN1CCN(C(c2ccccc2)c2ccc(Cl)cc2)CC1 (configuration not stated) [CETIRIZINE]
- Bacterial Biotransformation [1]: Compound metabolized
- Bacterial Biotransformation [2]: Compound NOT metabolized

Compound: CC(C)NCC(O)COc1ccc(CCOCC2CC2)cc1 (configuration not stated) [BETAXOLOL]
- Bacterial Biotransformation [2]: Compound NOT metabolized

Compound: COC(=O)[C@H](c1ccccc1Cl)N1CCc2sccc2C1.O=S(=O)(O)O [CLOPIDOGREL BISULFATE]
- Bacterial Biotransformation [1]: Compound NOT metabolized
- Bacterial Biotransformation [2]: Compound NOT metabolized

Compound: CN/C(=N/CCSCc1nc[nH]c1C)NC#N [CIMETIDINE]
- Bacterial Biotransformation [2]: Compound NOT metabolized

Compound: CC(C)NCC(O)COc1ccc(CC(N)=O)cc1 (configuration not stated) [ATENOLOL]
- Bacterial Biotransformation [2]: Compound NOT metabolized

Compound: CN(C)CCC=C1c2ccccc2C=Cc2ccccc21 [CYCLOBENZAPRINE]
- Bacterial Biotransformation [1]: Compound NOT metabolized
- Bacterial Biotransformation [2]: Compound NOT metabolized

Compound: Clc1cccc(Cl)c1N=C1NCCN1 [CLONIDINE]
- Bacterial Biotransformation [1]: Compound NOT metabolized
- Bacterial Biotransformation [2]: Compound NOT metabolized

Compound: CN1CCN(C2=Nc3cc(Cl)ccc3Nc3ccccc32)CC1 [CLOZAPINE]
- Bacterial Biotransformation [1]: Compound NOT metabolized
- Bacterial Biotransformation [2]: Compound NOT metabolized

Compound: c1ccc([C@H]2CN3CCSC3=N2)cc1 [LEVAMISOLE]
- Bacterial Biotransformation [1]: Compound NOT metabolized
- Bacterial Biotransformation [2]: Compound metabolized

Compound: O=P1(N(CCCl)CCCl)NCCCO1 (configuration not stated) [CYCLOPHOSPHAMIDE ANHYDROUS]
- Bacterial Biotransformation [1]: Compound metabolized
- Bacterial Biotransformation [2]: Compound NOT metabolized
